Results: US20180015051A1, “MODULATORS OF ALPHA-DICARBONYL DETOXIFICATION AND THEIR USE FOR THE TREATMENT OF DIABETIC PATHOLOGIES” (Buck Institute for Research on Aging, priority 2016, published 2018)

System: glod-4 animals
Assay: LC-MS/MS estimation of a-DC levels (MGO, GO) in worms
Type: in vivo, Caenorhabditis elegans
Settings: for Levels of GO / Levels of MGO: glod-4, PA; for Levels of GO: LA, or UMP (20 pM each) vs EtOH control; for Levels of MGO: LA, or UMP (20 pM) vs EtOH control
Experimental: Worms were cultured on NGM agar plates as explained before for lifespan experiments with some modifications: ˜100 animals/60 mm plates were used for each experimental replicate and animals were harvested at day 4 of adulthood with 20 pL M9 buffer in 1.5 mL eppendorf tubes. Worm suspensions were flash-frozen over liquid nitrogen and subsequently homogenized ultrasonically using a Fisher Scientific's 550 Sonic Dismembrator with 80 pL of sodium formate buffer (pH=3) containing 75 pM of 2,3-hexanedione (internal standard, IS). Two 20 s pulses at amplitude setting 4 of the instrument (on ice) were sufficient to completely homogenize worm bodies. To each homogenate tube 20 pL of 100 mg/mL o-phenelynediamine (OPD) solution in sodium formate buffer (pH=3) were added, and the mixture was allowed to react in dark at room temperature for ˜22 h. The long reaction time and the pH are critical parameters in this protocol: first to ensure complete derivatization of a-DCs bound reversibly to protein/glutathione —SHs; and second to prevent in vitro a-DC generation from glycolytic intermediates (DHAP, GAP, etc.) or due to DNA breakdown (Chaplen et al. (1998) Proc. Natl. Acad. Sci. USA, 95: 5533-5538). At the end of the stipulated reaction window, 12 pL of 5 M perchloric acid was added to each tube and incubated on ice for 30 min to ensure complete protein precipitation. Subsequently, the tubes were centrifuged at 10,000 rpm for 10 min, and the supernatant collected and neutralized with 30 pL 4 M NH4OH solution.
Optimization of analyte-specific MRM transitions, such as determination of suitable precursor and product ions and optimal MS parameters for each transition (Q1, precursor→Q3, product) were achieved by isocratic flow injection of the 10 pM solution (final) for each standard- or IS-OPD derivatives. The most intense (Q1→Q3) transition was used as quantifier, whereas the next best transition was used as qualifier for each compound (Table 4). For LC separation, a solvent gradient of 0.1% acetic acid in water (aqueous) - methanol (organic) was used with 0.4 mL/min flow rate, starting with an […] content of 3% for 0.7 min, which was increased to 100% over 6 min and held at 100% for 1.5 min. The LC column was subsequently reconstituted to its initial condition (methanol content of 3%) over the next 0.5 min and re-equilibrated for 3 min.
Derivatized metabolome extracts, as well as synthetic a-DCs were analyzed by scheduled LC-MRM in positive ion mode. To develop the scheduled LC-MRM method, MS/MS data was collected for all transitions across the length of each LC run for a mixture of synthetic GO-, MGO-, 3DG-, and 2,3-hexanedione (IS)-OPD derivatives (1 pL injection of 1 pM final concentration). Source conditions were as follows: curtain gas (CUR) 20, nebulizer gas (GS1) 60, auxiliary gas (GS2) 50, ionspray voltage (IS) 4500 V, and source temperature (TEM) 450° C. This step was undertaken to ascertain the LC retention times (RT) for the OPD derivatives. Several such sets were acquired to compute analyte-specific variability in RTs. Next, the MS was switched to operate in scheduled MRM mode, whereby the mass spectrometer acquired data for specific MRM transitions ±45 s around the computed RT for the analyte (Table 4). Relative quantification of GO, MGO, and 3DG were based on integration of corresponding OPD derivative-specific quantifier peaks obtained from scheduled LC-MRM runs (peak areas) and adjusted to the number of animals. To account for OPD derivatization efficiencies in individual tubes, sample-to-sample variability in MS response, and differential sample dilutions (both for synthetic a-DCs as well as a-DCs in worm homogenates), the peak areas were normalized to the quantifier peak area for IS-OPD for each sample.

| SMILES | Levels of GO | Levels of MGO | Levels of MGO under trpa-1 knockdown (glod-4 on trpa-1 RNAi, PA vs EtOH control) |
| --- | --- | --- | --- |
| O=C(O)CCCCC1CCSS1 (centres unmarked) [LA, a-lipoic acid] | almost wild-type-like levels | almost wild-type-like levels |  |
| C[C@]1(C(=O)O)CCC[C@]2(C)c3cc(O)ccc3CC[C@@H]12 [PA, podocarpic acid] | almost wild-type-like levels | almost wild-type-like levels | no effect |
